This is an account of results in patent publication US9504671B2, “Pharmaceutical compositions of spiro-oxindole compound for topical administration and their use as therapeutic agents” (Xenon Pharmaceuticals Inc., priority 2010, dated 2016).

Test [1] relates to STZ-induced neuropathic pain model. In words: STZ model of diabetic neuropathy, von Frey. In kind it is in vivo, male Sprague-Dawley rats. The note with it: 50 mg on left foot, 30 minutes post-dosing. An excerpt:
This study evaluates the efficacy of a pharmaceutical composition of the invention in the STZ-induced neuropathic pain model in male Sprague-Dawley rats, following acute dosing, as compared with a 5% (w/v) topical Lidocaine (Xylocaine®) and a 1.16% (w/v) topical Diclofenac (Voltaren®). A rodent model of painful peripheral diabetic neuropathy (PDN) that mimics human condition was created by inducing a diabetic state in the rat through the ablation of the insulin producing pancreatic beta cells. A single streptozotocin (STZ) injection destroys beta cells in rats and produces a diabetic state that over time progresses to painful Peripheral Diabetic Neuropathy (PDN).
Streptozotocin (STZ) was dissolved in citrate buffer (20 mM, pH 4.5) and administered at a dose of 60 mg/Kg, intraperitoneal, to induce pancreatic beta-cell death. Blood glucose level was measured once a week following injection, using the AccuSoft Blood Glucose Monitoring System. […] Hyperalgesia and allodynia, which are signs of diabetic neuropathic pain, were monitored using the von Frey test as described below. Von Frey measurements were recorded from both left and right paws. Only those with significant hyperalgesia as determined by reduced threshold, measured in grams, of paw withdrawal to the von Frey filament were enrolled in the study. […] During this time their health status was closely monitored.
The animals were randomly divided into 4 test groups (n=7 animals/group) including a vehicle control, a 5% (w/v) Lidocaine (Xylocaine®), a 1.16% (w/v) Diclofenac (Voltaren®), and a pharmaceutical composition with 4% (w/w) COMPOUND A. After baseline measurement, 50 mg of the test composition was applied on the entire left foot. […] The paw withdrawal thresholds of animals from mechanical tactile stimuli were measured using the Electrovonfrey anesthesiometer (Model 2290, IITC Life Science, Woodland Hills, Calif.). […] The force (g) required to elicit a crisp withdrawal response was recorded before dosing as a baseline measurement, and at 30 minutes post-dosing. […]

Test [2] has as its system CCI-induced neuropathic pain model. As to the kind of experiment: time course of efficacy in neuropathic pain model, Chronic Constriction Injury, von Frey. Type of test: in vivo, Sprague-Dawley rats. How it is done: Neuropathic pain is characterized by spontaneous pain and stimulus-evoked allodynia and hyperalgesia. Pharmaceutical compositions of the invention were evaluated in Chronic Constriction Injury model using Sprague-Dawley rats as described below.
An approximately 3 cm incision was made through the skin and the fascia at the mid thigh level of a rat's left hind leg using a no. 10 scalpel blade. The left sciatic nerve was exposed via blunt dissection through the biceps femoris with care to minimize haemorrhagia. Four loose ligatures were tied along the sciatic nerve using four chromic gut sutures at intervals of 1 mm to 2 mm apart. The tension of the loose ligatures was tight enough to induce slight constriction of the sciatic nerve when viewed under a dissection microscope at a magnification of 4 fold. As sham controls, the right sciatic nerve was exposed and manipulated in the same manner as described above, except sutures were not tied onto the nerve. Antibacterial ointment was applied directly into the wound, and the muscle was closed using sterilized sutures. Betadine® was applied onto the muscle and its surroundings, followed by skin closure with surgical clips.
A painful neuropathy was allowed to develop for at least 14 days in the ipsilateral leg as determined by lower paw withdrawal thresholds to a mechanical stimulus. Only those with significant hyperalgesia, as determined by reduced threshold of paw withdrawal to the von Frey filament, measured in grams, were enrolled in the study.
The response thresholds of animals to tactile stimuli were measured using the Model 2290 Electrovonfrey anesthesiometer (IITC Life Science, Woodland Hills, Calif.). Animals were placed in an elevated Plexiglass enclosure set on a mire mesh surface. After 15 minutes of accommodation, a von Frey hair was applied perpendicularly to the plantar surface of the ipsilateral hind paws of the animals with sufficient force, measured in grams, to elicit a crisp response of the paw. The response indicated a withdrawal from the painful stimulus and constituted the efficacy endpoint. The force (in grams) required to elicit a crisp withdrawal response was recorded before dosing as a baseline measurement, and at multiple time points post-dosing.
Three days prior to baseline measurement, animals were anaesthetized under isoflurane and the whole of the ipsilateral hind legs, including the upper sciatic notch thigh area, ankle and foot, was shaved. The animals were then randomly assigned to one of 4 different test groups including a vehicle control group, a 5% (w/v) Lidocaine (Xylocaine®), and 2 pharmaceutical compositions of the invention comprising COMPOUND A at 4% (w/w) containing either 5% or 10% Transcutol® P. After baseline measurement, 100 mg of the test composition was applied on the entire shaved area. The animals were then placed in plastic tubes for at least 15 minutes, to prevent early removal/ingestion of drug. Subsequently, animals were placed in the Plexiglas enclosure 15 minutes before von Frey measurement at the respective time points. Von Frey withdrawal thresholds were measured as the mean of several independent determinations made within 1-2 minutes of each other on the affected paw of each animal at 0.5, 1 and 2 hours post dosing.

Consider `O=C(O)Cc1ccccc1Nc1c(Cl)cccc1Cl` [Diclofenac], for which, in test [1] (1.16% (w/v) topical), the “paw withdrawal threshold of treated paw, CFB” value is reported as “No significant CFB”.
Turning to `CCN(CC)CC(=O)Nc1c(C)cccc1C` [Lidocaine, reference compound], the “paw withdrawal threshold, percent mean change from baseline (CFB)” value in test [2] (5% (w/v) topical, 100 mg applied, 0.5 hours post-dosing) is reported as “+23.1%”. Besides, the “paw withdrawal threshold, CFB” value in test [2] (5% (w/v) topical, time points later than 0.5 hours post-dosing, p>0.05) is on record as “No significant changes”. Also, in test [2] (5% topical), the “duration of analgesic effects post-dosing” value is given as “up to 0.5 hours”. For the same compound, in test [1] (5% (w/v) topical), the “paw withdrawal threshold of treated paw, percent mean change from baseline (CFB)” value was determined as 25.9%.
